Experiments:
[1] = test system: PC3 cells; test: Transwell cell migration; assay type: cell-based, human; details: Gamitrinib 5 μM, 17-AAG 5 μM, CCCP 12.5 μM, 2-DG 25 mM, rapamycin 0.1 μM, 6 h
Experimental: Various tumor cell types were treated as indicated in each experiment, suspended in 0.1% BSA/DMEM and seeded (1.6−3.2×10^3 cells/mm2, depending on the cell type) in the upper compartment of […] pore diameter BD transwells (BD). NIH3T3 conditioned medium was placed in the lower compartment as a chemoattractant. After 6-18 h incubations at 37° C., the transwell membranes were recovered and cells on the upper side (non-migratory) were wiped off the surface. Cells on the lower side of the membrane were fixed in methanol, rinsed in water and mounted on glass slides with Vectashield medium containing DAPI (Vector Laboratories). Migrated cells on each membrane were counted by fluorescence microscopy in 5 different fields. For cell invasion assays, transwell membranes were coated with Matrigel and processed as described above.

[2] = test system: PC3 cells; test: Wound closure assay, tumor cells; assay type: cell-based, human; details: Gamitrinib 5 μM, 16 and 24 h
[3] = test system: normal human MRC-5 lung fibroblasts; test: Wound closure assay, normal fibroblasts; assay type: cell-based; details: Gamitrinib 5-10 μM, 16 or 24 h
Experimental: For cell migration experiments using a wound closure assay, confluent monolayers of MRC-5 cells were incubated with vehicle or Gamitrinib (5-10 μM), and wounded using a 10 μl pipette tip. Three micrographs/well were obtained at time=0, 16 and 24 h after wounding, and the percentage of wound closure was normalized to the maximum initial area for each well. For analysis of tumor cell invasion in 3D organotypic spheroids, tumor cells (5×10^4) were seeded onto 96-well plates coated with 1.5% agar (Difco Noble Agar) in PBS, pH 7.4. Spheroids were allowed to form over a 72 h period and then embedded in […] of bovine collagen type I (Organogenesis) in 24-well plates. Spheroids were overlaid with 1 ml of growth medium, treated with various concentrations of Gamitrinib for 72 h, and analyzed for changes in maximum invasion distance and invasion area. Quantification of live vs. dead cells under the various conditions tested was performed by staining the spheroids with calcein-AM (live, bright cluster) and Topro-3 (dead, dark spots) (Invitrogen) for 2 h. Samples were imaged using a Prairie Ultima II 2-photon microscope (Prairie Technologies, Inc, Middleton, Wis.), and stacks of 100 slices were generated in 2 channels. 3-D reconstruction of the labeled spheroids and analysis of cell staining was carried out using ImagePro Plus 3D software (Media Cybernetics, Silver Spring Md.).

[4] = test system: Focal Adhesion Kinase (FAK); test: Western blotting, FAK phosphorylation; assay type: cell-based, human; details: tumor cells (PC3); Gamitrinib 5 μM, CCCP 12.5 μM, rapamycin 0.1 μM
Experimental: (§1) Protein lysates were prepared in RIPA buffer containing 150 mM NaCl, 1.0% Triton X-100, 0.5% sodium deoxycholate, 0.1% SDS, 50 mM Tris, pH 8.0, in the presence of EDTA-free protease inhibitor cocktail (Roche) and phosphatase inhibitor cocktail 2 and 3 (Sigma Aldrich). Equal amounts of protein lysates were separated by SDS gel electrophoresis, transferred to PVDF membranes and incubated with primary antibodies of various specificities. Protein bands were detected by chemiluminescence, as described (21).

[5] = test system: Src; test: Western blotting, Src phosphorylation; assay type: cell-based, human; details: Gamitrinib 5 μM
Experimental: as §1

[6] = test system: Rac1 and Cdc42; test: Rac1 and Cdc42-GTP pull-down assays; assay type: cell-based, human; details: serum-starved A549 cells stimulated with EGF or FBS; Gamitrinib 5 μM
Experimental: The activation of Rho family small GTPases, Rac1 or Cdc42 was examined in pull-down assays using the p21-binding domain (PBD, amino acids 70-117) of the p21-activated kinase-1 (Pak1). Briefly, a pGEX TK-Pak1 PBD cDNA (Addgene, Cat. no. #12217) was purified, transformed into BL21 E. coli competent cells (Stratagene), and expressed as recombinant GST fusion protein after induction with 1 mM IPTG for 4 h at 34° C. Cells were suspended in PBS, pH 7.2, in the presence of protease inhibitors (SIGMA), and broken by sonication in 1% Triton X-100 for 30 min at 4° C. Soluble proteins were isolated by chromatography on glutathione Sepharose 4B (GS4B, GE Healthcare), eluted in 3 consecutive steps in buffer containing 10 mM GSH, 50 mM Tris HCl, pH 8.0, and further desalted using Amicon Ultra 4/10K columns (Millipore), for a total of 3 buffer changes to PBS, pH 7.2. The protein was diluted in glycerol, quantified by absorbance at 280 nm, and stored at −80° C. until use. The activity of each batch of recombinant protein was assessed by incubating aliquots of the cell lysate with non-hydrolyzable GTPγS at 0.1 mM (maximum binding) or 1 mM GDP (negative control) in low Mg2+ buffer at 30° C. followed by pull-down (54). […]

[7] = test system: AMPK; test: Western blotting, AMPK and ACC phosphorylation; assay type: cell-based, human
Experimental: as §1

[8] = test system: ULK1; test: Western blotting, ULK1 phosphorylation and level; assay type: cell-based, human; details: PC3
Experimental: as §1

[9] = test system: FIP200; test: FIP200 phosphoisotypes, phosphate-affinity SDS gel mobility shift; assay type: cell-based, human; details: PC3; Gamitrinib 5 μM
Experimental: Analysis of phosphoisotypes was carried out by standard phosphate-affinity SDS gel electrophoresis, using a mobility shift protocol (56). Briefly, proteins were separated by electrophoresis on 3% polyacrylamide/0.5% SeaKem Gold Agarose (Lonza) gels containing the dinuclear metal complex Mn2+-Phos-tag (Acrylamide-pendant Phos-tag, Wako Chemicals). After removal of Mn2+ by washing the gels in blotting buffer containing 1 mM EDTA, proteins were transferred to PVDF membranes and detected by Western blotting using antibodies to FIP200 or pan-phosphorylated Ser residues.

[10] = test system: bone metastatic disease; details: orthotopic xenograft models and genetic mouse models; cited from earlier work

Gamitrinib
tumor cell migration [1]: suppressed | tumor cell migration in wound closure assay [2]: inhibited tumor cell migration | migration of normal human fibroblasts in wound closure assay [3]: did not affect migration | FAK phosphorylation on Tyr397 and Tyr925 [4]: loss of phosphorylation | Src phosphorylation on Tyr416 [5]: inhibited the phosphorylation | activation of Rac1 and Cdc42 (GTP-bound) [6]: impaired | AMPK phosphorylation during nutrient deprivation ([7]; LN229, Gamitrinib 5 μM, with or without glucose): increased AMPK phosphorylation | AMPK and ACC phosphorylation ([7]; PC3, Gamitrinib 5 μM time course, metformin 5 mM 6 h, 17-AAG 5 μM time course): induced early phosphorylation | ULK1 phosphorylation on Ser555 ([8]; Gamitrinib 5 μM (within 1-2 h), metformin 5 mM 6 h, 17-AAG 5 μM): phosphorylation of ULK1 on Ser555 | ULK1 phosphorylation on Ser757 ([8]; Gamitrinib 5 μM, metformin 5 mM 6 h, 17-AAG 5 μM): decreased phosphorylation on Ser757 | total level of ULK1 ([8]; time points of the Western blot experiment): not affected | FIP200 gel mobility (phosphorylation) [9]: gel mobility retardation, suggestive of increased phosphorylation | bone metastatic disease [10]: inhibit bone metastatic disease

Reference: US20140271667A1, “Methods and Compositions for Neoadjuvant Therapy” (The Wistar Institute of Anatomy and Biology, priority 2013, published 2014)
